Literature values, collected in patent publication US6379615B1, “Methods of sterilizing articles” (St. Jude Medical, Inc., priority 2000, dated 2002).

Settings: ethanol at about 70 percent by weight; cited from earlier work

## CCO [ethanol]
  bactericidal effect of ethanol alone: only mildly bactericidal
